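Following 48 hours of exposure in 96-well plates, responses at five concentrations were used to interpolate endpoints linearly. TGI: concentration producing complete growth inhibition.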
Experiments:
Assay in all cases: NCI tumour cell line growth inhibition, 48 h
[1] = test system: DMS 273 small cell lung
[2] = test system: COLO 205 colon
[3] = test system: NCI-H522 lung
[4] = test system: 786-0 renal
[5] = test system: OVCAR-5 ovarian
[6] = test system: EKVX NSCLC
[7] = test system: HOP-18 NSCLC
[8] = test system: NCI-H460 lung
[9] = test system: MOLT-4 leukemia
[10] = test system: HOP-92 NSCLC
[11] = test system: DMS 114 small cell lung
[12] = test system: SK-MEL-5 melanoma
[13] = test system: LOX IMVI melanoma
[14] = test system: OVCAR-3 ovarian
[15] = test system: UACC-257 melanoma
[16] = test system: SF-295 CNS
[17] = test system: M14 melanoma
[18] = test system: KM12 colon
[19] = test system: SN12C renal
[20] = test system: HCC-2998 colon
[21] = test system: SF-539 CNS
[22] = test system: SR leukemia
[23] = test system: OVCAR-4 ovarian
[24] = test system: SNB-78 CNS
[25] = test system: SK-MEL-2 melanoma
[26] = test system: DLD-1 colon
[27] = test system: SNB-19 CNS
[28] = test system: OVCAR-8 ovarian
[29] = test system: HOP-62 NSCLC
[30] = test system: HL-60(TB) leukemia
[31] = test system: NCI-H226 lung
[32] = test system: SNB-75 CNS
[33] = test system: RXF 393 renal
[34] = test system: NCI-H23 lung
[35] = test system: A549 NSCLC
[36] = test system: SK-OV-3 ovarian
[37] = test system: HCT-15 colon
[38] = test system: RPMI-8226 leukemia
[39] = test system: LXFL 529 NSCLC
[40] = test system: A498 renal
[41] = test system: SF-268 CNS
[42] = test system: IGROV1 ovarian
[43] = test system: CAKI-1 renal
[44] = test system: K-562 leukemia
[45] = test system: HT29 colon
[46] = test system: SK-MEL-28 melanoma
[47] = test system: TK-10 renal
[48] = test system: ACHN renal
[49] = test system: RXF-631 renal
[50] = test system: U251 CNS
[51] = test system: KM20L2 colon
[52] = test system: UACC-62 melanoma
[53] = test system: HCT-116 colon
[54] = test system: CCRF-CEM leukemia
[55] = test system: SW-620 colon
[56] = test system: MALME-3M melanoma
[57] = test system: UO-31 renal
[58] = test system: XF 498 CNS
[59] = test system: M19-MEL melanoma

CC1=NN(C(=O)CC(=O)Nc2ccccc2)C(=O)C1N=Nc1ccc(S(N)(=O)=O)cc1 (stereo unspecified)
TGI [1]: > 100 µM | TGI [2]: > 100 µM | TGI [3]: > 100 µM | TGI [4]: > 100 µM | TGI [5]: > 100 µM | TGI [6]: > 100 µM | TGI [7]: > 100 µM | TGI [8]: > 100 µM | TGI [9]: > 100 µM | TGI [10]: > 100 µM | TGI [11]: > 100 µM | TGI [12]: > 100 µM | TGI [13]: > 100 µM | TGI [14]: > 100 µM | TGI [15]: > 100 µM | TGI [16]: > 100 µM | TGI [17]: > 100 µM | TGI [18]: > 100 µM | TGI [19]: > 100 µM | TGI [20]: > 100 µM | TGI [21]: > 100 µM | TGI [22]: > 100 µM | TGI [23]: > 100 µM | TGI [24]: > 100 µM | TGI [25]: > 100 µM | TGI [26]: > 100 µM | TGI [27]: > 100 µM | TGI [28]: > 100 µM | TGI [29]: > 100 µM | TGI [30]: > 100 µM | TGI [31]: > 100 µM | TGI [32]: > 100 µM | TGI [33]: > 100 µM | TGI [34]: > 100 µM | TGI [35]: > 100 µM | TGI [36]: > 100 µM | TGI [37]: > 100 µM | TGI [38]: > 100 µM | TGI [39]: > 100 µM | TGI [40]: > 100 µM | TGI [41]: > 100 µM | TGI [42]: > 100 µM | TGI [43]: > 100 µM | TGI [44]: > 100 µM | TGI [45]: > 100 µM | TGI [46]: > 100 µM | TGI [47]: > 100 µM | TGI [48]: > 100 µM | TGI [49]: > 100 µM | TGI [50]: > 100 µM | TGI [51]: > 100 µM | TGI [52]: 92.6 µM | TGI [53]: > 100 µM | TGI [54]: > 100 µM | TGI [55]: > 100 µM | TGI [56]: > 100 µM | TGI [57]: > 100 µM | TGI [58]: > 100 µM

CC12CCC3=C(CSC4=C3CSc3ccccc34)C1=CCCC2=O (stereo unspecified)
TGI [1]: > 100 µM | TGI [2]: 45.8 µM | TGI [3]: > 100 µM | TGI [5]: > 100 µM | TGI [6]: > 100 µM | TGI [7]: > 100 µM | TGI [8]: > 100 µM | TGI [9]: > 100 µM | TGI [11]: > 100 µM | TGI [12]: 53 µM | TGI [13]: > 100 µM | TGI [14]: > 100 µM | TGI [17]: > 100 µM | TGI [18]: > 100 µM | TGI [19]: > 100 µM | TGI [20]: > 100 µM | TGI [21]: > 100 µM | TGI [22]: > 100 µM | TGI [23]: 55.6 µM | TGI [25]: > 100 µM | TGI [26]: > 100 µM | TGI [27]: > 100 µM | TGI [28]: > 100 µM | TGI [29]: > 100 µM | TGI [30]: > 100 µM | TGI [59]: > 100 µM | TGI [31]: > 100 µM | TGI [33]: > 100 µM | TGI [34]: > 100 µM | TGI [35]: > 100 µM | TGI [37]: > 100 µM | TGI [38]: > 100 µM | TGI [39]: > 100 µM | TGI [41]: > 100 µM | TGI [43]: > 100 µM | TGI [44]: > 100 µM | TGI [45]: > 100 µM | TGI [46]: > 100 µM | TGI [47]: > 100 µM | TGI [48]: > 100 µM | TGI [50]: > 100 µM | TGI [51]: > 100 µM | TGI [53]: > 100 µM | TGI [54]: > 100 µM | TGI [55]: > 100 µM | TGI [56]: > 100 µM | TGI [57]: > 100 µM | TGI [58]: 87.3 µM

Clc1cc(Cl)c2n[se]nc2c1
TGI [1]: > 100 µM | TGI [3]: > 100 µM | TGI [4]: > 100 µM | TGI [5]: > 100 µM | TGI [6]: > 100 µM | TGI [7]: > 100 µM | TGI [8]: > 100 µM | TGI [9]: > 100 µM | TGI [12]: > 100 µM | TGI [13]: > 100 µM | TGI [15]: > 100 µM | TGI [16]: > 100 µM | TGI [17]: > 100 µM | TGI [18]: > 100 µM | TGI [19]: > 100 µM | TGI [20]: > 100 µM | TGI [21]: > 100 µM | TGI [22]: > 100 µM | TGI [23]: > 100 µM | TGI [24]: > 100 µM | TGI [25]: > 100 µM | TGI [27]: > 100 µM | TGI [28]: > 100 µM | TGI [29]: > 100 µM | TGI [30]: > 100 µM | TGI [59]: > 100 µM | TGI [32]: > 100 µM | TGI [33]: > 100 µM | TGI [34]: > 100 µM | TGI [35]: > 100 µM | TGI [36]: > 100 µM | TGI [37]: > 100 µM | TGI [38]: > 100 µM | TGI [40]: > 100 µM | TGI [41]: > 100 µM | TGI [42]: > 100 µM | TGI [43]: > 100 µM | TGI [44]: > 100 µM | TGI [45]: > 100 µM | TGI [46]: > 100 µM | TGI [47]: > 100 µM | TGI [48]: > 100 µM | TGI [49]: > 100 µM | TGI [50]: > 100 µM | TGI [51]: > 100 µM | TGI [52]: > 100 µM | TGI [53]: > 100 µM | TGI [54]: > 100 µM | TGI [55]: > 100 µM | TGI [56]: > 100 µM | TGI [57]: > 100 µM

Cc1cc(C)cc(NC(=O)CCC(=O)C2CCC/C2=N\NC(=O)C(=O)NN)c1 (stereo unspecified)
TGI [1]: > 100 µM | TGI [2]: > 100 µM | TGI [4]: > 100 µM | TGI [5]: > 100 µM | TGI [6]: > 100 µM | TGI [7]: > 100 µM | TGI [8]: > 100 µM | TGI [9]: > 100 µM | TGI [11]: > 100 µM | TGI [12]: > 100 µM | TGI [13]: > 100 µM | TGI [14]: > 100 µM | TGI [15]: > 100 µM | TGI [16]: > 100 µM | TGI [17]: > 100 µM | TGI [18]: > 100 µM | TGI [19]: > 100 µM | TGI [20]: > 100 µM | TGI [21]: > 100 µM | TGI [23]: > 100 µM | TGI [25]: > 100 µM | TGI [26]: > 100 µM | TGI [27]: > 100 µM | TGI [28]: > 100 µM | TGI [30]: > 100 µM | TGI [59]: > 100 µM | TGI [31]: > 100 µM | TGI [32]: > 100 µM | TGI [33]: > 100 µM | TGI [34]: > 100 µM | TGI [35]: > 100 µM | TGI [36]: > 100 µM | TGI [37]: > 100 µM | TGI [38]: > 100 µM | TGI [39]: > 100 µM | TGI [40]: > 100 µM | TGI [41]: > 100 µM | TGI [42]: > 100 µM | TGI [43]: > 100 µM | TGI [44]: > 100 µM | TGI [45]: > 100 µM | TGI [46]: > 100 µM | TGI [47]: > 100 µM | TGI [48]: > 100 µM | TGI [49]: > 100 µM | TGI [50]: > 100 µM | TGI [51]: > 100 µM | TGI [52]: > 100 µM | TGI [53]: > 100 µM | TGI [54]: > 100 µM | TGI [55]: > 100 µM | TGI [56]: > 100 µM | TGI [57]: > 100 µM | TGI [58]: > 100 µM
